Earlier results, collected in patent US20100285098A1, “ADHERING TROCHES WITH SANTACID FOR TREATMENT OF THROAT ESOPHAGUS AND STOMACH” (priority 2007, published 2010).

Row | SMILES | absorbed into the blood (delivered to the stomach such as by capsule) [%] | inhaled dose systemically absorbed (delivered topically by dry powder inhaler) | excretion (in vivo) | metabolism by the body (in vivo) | side effects (other than those caused by the delivery vehicle) | suppression of Helicobacter pylori (Helicobacter pylori) | suppression of Streptococcus pyogenes (Streptococcus pyogenes)
1 | CC(=O)N[C@H]1[C@H]([C@H](O)[C@H](O)CO)OC(C(=O)O)=C[C@@H]1N=C(N)N [Zanamavir, zanamavir] | 2 | 4-17% | excreted in the urine without change | not metabolized | Rare side effects |  | 
2 | OC[C@@H](O)[C@H](O)[C@@H](O)CO [xylitol] |  |  |  |  |  | suppressed | suppressed
